Legend:
intracranial tumor = conditions: BNCT, beam directed to surgically exposed intracranial tumor, Japan 1968; cited from earlier work
FaDu cells [1] = experiment: Uptake of boron compounds in FaDu cells in vitro (Example 7); assay type: cell-based; conditions: 2.5 mM in HBSS, two (2) hrs; for uptake (boron) in FaDu cells: 37° C., boron by ICP-OES, FaDu compared with U343MG
Experimental: (§1) In this experiment, the uptake of BPA, FBH FBF, and LBH was carried out to determine which compounds show greater uptake FaDu and U343MG cells. The following protocols were used. Briefly, two (2) assays were performed, one using FaDu cells and the other using U343MG cells. FaDu and U343MG cells were harvested and washed with PBS twice. The count was adjusted to 2 million/ml in HBSS. Boron compounds were added to cells at the final concentration of 2.5 mM in HBSS and the cells were incubated at 37° C., in a humidified 5% CO2 atmosphere for two (2) hrs. with shaking. Following a two (2) hour incubation, cells were harvested and washed twice with ice cold PBS. Cells were then suspended in 1 ml ice cold PBS and a portion (50 μl) was lysed in RIPA buffer and protein content determined by BCA assay. The remaining portion (950 μl) was subjected to nitric acid lysis (66.7% acid at 80° C.). Boron measurements were carried out using ICP-OES. Boronophenylalanine (as fructose solution) was used as a control.

U343MG cells = experiment: Uptake of boron compounds in U343MG cells in vitro (Example 7); assay type: cell-based; conditions: 2.5 mM in HBSS, two (2) hrs; for uptake (boron) in U343MG cells: 37° C., boron by ICP-OES
Experimental: as §1

FaDu cells [2] = experiment: Uptake of boron compounds in FaDu cells in vitro (Example 6); assay type: cell-based; conditions: 2.5 mM in HBSS, 37° C., two (2) hrs, boron by ICP-OES; compared with BPA (fructose solution)
Experimental: as §1, with “The” for “In this experiment, the uptake of BPA, FBH FBF, and LBH was carried out to determine which compounds show greater uptake FaDu and U343MG cells. The”, “Briefly,” for “Briefly, two (2) assays were performed, one using”, “FaDu” for “FaDu cells and the other using U343MG cells. FaDu and U343MG”

Molecule	5-year survival rate (intracranial tumor) [%]	uptake (boron) in FaDu cells (FaDu cells [1])	uptake (boron) in U343MG cells (U343MG cells)	uptake relative to the other compounds, FaDu cells (FaDu cells [1]; versus BPA, FBH, LBH)	uptake relative to the other compounds, U343MG cells (U343MG cells; versus BPA, FBH, LBH)	uptake (boron) in FaDu cells (FaDu cells [2])
un-decahydrododecaborane thiol [BSH]	58	–	–	–	–	–
N[C@@H](Cc1ccc(B(O)O)cc1)C(=O)O [BPA, 4-Borono-L-phenylalanine, reference compound]	–	slightly lower uptake	sufficient level uptake	–	–	–
N[C@@H](Cc1ccccc1)[B-](F)(F)F.[K+] [FBF, [(1R)-1-amino-2-phenylethyl]trifluoroboranuide]	–	slightly lower uptake	sufficient level uptake	marginally greater uptake than the other compounds	marginally greater uptake than the other compounds	–
CC(C)C[C@H](N)B(O)O [LBH, L-leucine boronic acid]	–	slightly lower uptake	sufficient level uptake	–	–	lower
N[C@@H](Cc1ccccc1)B(O)O [FBH, L-phenylalanine boronic acid]	–	slightly lower uptake	sufficient level uptake	–	–	–

Reference: patent publication US20250059215A1, “Trifluoroborate (BF3) Compositions For Use In Boron Neutron Capture Therapy and Methods Thereof” (TAE Life Sciences LLC, priority 2023, published 2025)
